How the values were obtained:
[1] = molecular target: T1, glucagon receptor (GCGR) overexpressed CHO-K1 cells or human primary hepatocytes (Homo sapiens, UniProt P47871); assay: Glucagon cAMP inhibition assay (Cisbio cAMP Dynamic 2 HTRF); format: cell-based; conditions: inhibition of glucagon (EC50 concentration) induced cAMP production
T1 construct: expressed in transfected cells; host or cells: GCGR overexpressed CHO-K1 cells or human primary hepatocytes (endogenous receptor)
In short: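 GCGR-overexpressing CHO-K1 cells or human primary hepatocytes in HBSS with 0.1% BSA and 800 nM IBMX, pre-incubated 30 min with serially diluted compounds (1% DMSO final), then stimulated 30 min at room temperature with glucagon at its EC50. cAMP measured by HTRF after 60 min lysis; IC50 by non-linear regression.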

glucagon receptor (GCGR) = molecular target: T2, glucagon receptor (GCGR) (Homo sapiens, UniProt P47871); assay: I125-glucagon binding assay (competition, GCGR membrane fractions); conditions: competition with I125-glucagon 0.0625 nM, membrane fractions of GCGR overexpressed CHO-K1 cells
T2 construct: expressed in transfected cells; host or cells: CHO-K1 cells overexpressing GCGR (membrane fractions)
In short: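 Membranes from CHO-K1 cells overexpressing GCGR, 7.5 μg/well in 50 mM Tris pH 7.4 with 0.5% BSA, were preincubated 5 min with serially diluted compounds, then given 0.0625 nM final I^125-glucagon for 30 min at 25° C. Bound label was filtered on PEI-coated GF/B and counted; IC50 by non-linear regression.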

T2 sequence (P47871 26-477): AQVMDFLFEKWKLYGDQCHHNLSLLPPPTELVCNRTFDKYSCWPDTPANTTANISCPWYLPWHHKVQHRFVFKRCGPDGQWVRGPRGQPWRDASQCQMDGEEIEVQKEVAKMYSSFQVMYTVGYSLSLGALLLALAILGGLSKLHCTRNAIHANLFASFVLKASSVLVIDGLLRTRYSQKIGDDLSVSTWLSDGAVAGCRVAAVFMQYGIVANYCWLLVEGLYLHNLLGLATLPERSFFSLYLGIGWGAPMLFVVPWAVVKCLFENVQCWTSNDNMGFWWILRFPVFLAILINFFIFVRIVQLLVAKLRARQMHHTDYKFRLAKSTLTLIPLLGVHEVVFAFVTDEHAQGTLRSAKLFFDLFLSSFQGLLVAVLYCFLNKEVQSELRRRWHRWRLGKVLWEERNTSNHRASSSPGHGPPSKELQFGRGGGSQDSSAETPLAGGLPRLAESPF
T1 sequence (P47871 26-477): as above

Structure (SMILES)	IC50 cAMP [1] [nM]	IC50 (glucagon receptor (GCGR)) [nM]
CC[C@H](C)[C@@H](COc1ccc(-c2ccc(C(F)(F)F)cc2F)nc1)Nc1ccc(C(=O)NCCC(=O)O)cc1 [Compound 10-14, 3-(4-(((2S,3S)-1-((6-(2-fluoro-4-(trifluoromethyl)phenyl)pyridin-3-yl)oxy)-3-methylpentan-2-yl)amino)benzamido)propanoic Acid]	497.1	306
CC[C@H](C)[C@@H](COc1ccc(-c2ccc(Cl)cc2Cl)nc1)Nc1ccc(C(=O)NCCC(=O)O)cc1 [Compound 10-15, 3-(4-(((2S,3S)-1-((6-(2,4-dichlorophenyl)pyridin-3-yl)oxy)-3-methylpentan-2-yl)amino)benzamido)propanoic Acid]	301	179
CC[C@H](C)[C@@H](COc1ccc(-c2ccc(C(F)(F)F)cc2Cl)nc1)Nc1ccc(C(=O)NCCC(=O)O)cc1 [Compound 10-16, 3-(4-(((2S,3S)-1-((6-(2-chloro-4-(trifluoromethyl)phenyl)pyridin-3-yl)oxy)-3-methylpentan-2-yl)amino)benzamido)propanoic Acid]	272	141
CC(C)C[C@@H](COc1ccc(-c2ccc(C(F)(F)F)cc2)nc1)Nc1ccc(C(=O)NCCC(=O)O)cc1 [Compound 10-17, (S)-3-(4-((4-methyl-1-((6-(4-(trifluoromethyl)phenyl)pyridin-3-yl)oxy)pentan-2-yl)amino)benzamido)propanoic Acid]	847	542
CC(C)C[C@@H](COc1ccc(-c2ccc(C(F)(F)F)cc2Cl)nc1)Nc1ccc(C(=O)NCCC(=O)O)cc1 [Compound 10-18, (S)-3-(4-((1-((6-(2-chloro-4-(trifluoromethyl)phenyl)pyridin-3-yl)oxy)-4-methylpentan-2-yl)amino)benzamido)propanoic Acid]	880	234
CC(C)C[C@@H](COc1ccc(-c2ccc(Cl)cc2Cl)nc1)Nc1ccc(C(=O)NCCC(=O)O)cc1 [Compound 10-19, (S)-3-(4-((1-((6-(2,4-dichlorophenyl)pyridin-3-yl)oxy)-4-methylpentan-2-yl)amino)benzamido)propanoic Acid]	1064	301
CC(C)[C@@H](COc1ccc(-c2ccc(C(F)(F)F)cc2Cl)nc1)Nc1ccc(C(=O)NCCC(=O)O)cn1 [Compound 11-1, (S)-3-(6-((1-((6-(2-chloro-4-(trifluoromethyl)phenyl)pyridin-3-yl)oxy)-3-methylbutan-2-yl)amino)nicotinamido)propanoic Acid]	8711	1740
CC(C)[C@@H](COc1ccc(-c2cc3ccccc3o2)nc1)Nc1ccc(C(=O)NCCC(=O)O)cn1 [Compound 11-2, (S)-3-(6-((1-((6-(benzofuran-2)pyridin-3-yl)oxy)-3-methylbutan-2-yl)amino)nicotinamido)propanoic Acid]	14398	926
Cc1nn(-c2ncc(OC[C@H](CC(C)C)Nc3ccc(C(=O)NCCC(=O)O)cc3)cn2)cc1C(F)(F)F [Compound 12-1, (S)-3-(4-((4-methyl-1-((2-(3-methyl-4-(trifluoromethyl)-1H-pyrazol-1-yl)pyrimidin-5-yl)oxy)pentan-2-yl)amino)benzamido)propanoic Acid]	14170	674
CC(C)[C@@H](COc1cnc(-c2cc3ccccc3o2)nc1)Nc1ccc(C(=O)NCCC(=O)O)cc1 [Compound 12-2, (S)-3-(4-((1-((2-(benzofuran-2-yl)pyrimidin-5-yl)oxy)-3-methylbutan-2-yl)amino)benzamido)propanoic Acid]	6849	266
CC(C)C[C@@H](COc1cnc(-c2cc3ccccc3o2)nc1)Nc1ccc(C(=O)NCCC(=O)O)cc1 [Compound 12-3, (S)-3-(4-((1-((2-(benzofuran-2-yl)pyrimidin-5-yl)oxy)-4-methylpentan-2-yl)amino)benzamido)propanoic Acid]	>30000	608
CC(C)[C@@H](COc1cnc(-c2ccc(C(F)(F)F)cc2Cl)nc1)Nc1ccc(C(=O)NCCC(=O)O)cc1 [Compound 12-4]	9828	539
CCCC[C@@H](COc1cnc(-c2ccc(C(F)(F)F)cc2Cl)nc1)Nc1ccc(C(=O)NCCC(=O)O)cc1 [Compound 12-5, (S)-3-(4-((1-((2-(2-chloro-4-(trifluoromethyl)phenyl)pyrimidin-5-yl)oxy)hexan-2-yl)amino)benzamido)propanoic Acid]	2357	451
CC(C)[C@@H](COc1cnc(-c2ccc(Cl)cc2Cl)nc1)Nc1ccc(C(=O)NCCC(=O)O)cc1 [Compound 12-6, (S)-3-(4-((1-((2-(2,4-dichlorophenyl)pyrimidin-5-yl)oxy)-3-methylbutan-2-yl)amino)benzamido)propanoic Acid]	>30000	1670
CCCC[C@@H](COc1cnc(-c2ccc(Cl)cc2Cl)nc1)Nc1ccc(C(=O)NCCC(=O)O)cc1 [Compound 12-7, (S)-3-(4-((1-((2-(2,4-dichlorophenyl)pyrimidin-5-yl)oxy)hexan-2-yl)amino)benzamido)propanoic Acid]	3868	888
CCC(C)[C@@H](COc1cnc(-c2ccc(C(F)(F)F)cc2Cl)nc1)Nc1ccc(C(=O)NCCC(=O)O)cc1 (stereo partly drawn) [Compound 12-8, 3-(4-(((2S)-1-((2-(2-chloro-4-(trifluoromethyl)phenyl)pyrimidin-5-yl)oxy)-3-methylpentan-2-yl)amino)benzamido)propanoic Acid]	2719	331
CC(C)C[C@@H](COc1cnc(-c2ccc(C(F)(F)F)cc2Cl)nc1)Nc1ccc(C(=O)NCCC(=O)O)cc1 [Compound 12-9, (S)-3-(4-((1-((2-(2-chloro-4-(trifluoromethyl)phenyl)pyrimidin-5-yl)oxy)-4-methylpentan-2-yl)amino)benzamido)propanoic Acid]	19185	501
CCC(C)[C@@H](COc1cnc(-c2ccc(Cl)cc2Cl)nc1)Nc1ccc(C(=O)NCCC(=O)O)cc1 (stereo partly drawn) [Compound 12-10, 3-(4-(((2S)-1-((2-(2,4-dichlorophenyl)pyrimidin-5-yl)oxy)-3-methylpentan-2-yl)amino)benzamido)propanoic Acid]	890	337
CC(C)C[C@@H](COc1cnc(-c2ccc(Cl)cc2Cl)nc1)Nc1ccc(C(=O)NCCC(=O)O)cc1 [Compound 12-11, (S)-3-(4-((1-((2-(2,4-dichlorophenyl)pyrimidin-5-yl)oxy)-4-methylpentan-2-yl)amino)benzamido)propanoic Acid]	3585	233
CC[C@H](C)[C@@H](COc1ccc(-c2cc3ccccc3o2)c(OC)c1)Nc1ccc(C(=O)NCCC(=O)O)cc1 [Compound 13-1, 3-(4-(((2S,3S)-1-(4-(benzofuran-2-yl)-3-methoxyphenoxy)-3-methylpentan-2-yl)amino)benzamido)propanoic Acid]	157	46
CC[C@H](C)[C@@H](COc1ccc(-c2ccc(Cl)cc2Cl)c(OC)c1)Nc1ccc(C(=O)NCCC(=O)O)cc1 [Compound 13-2, 3-(4-(((2S,3S)-1-((2′,4′-dichloro-2-methoxy-[1,1′-biphenyl]-4-yl)oxy)-3-methylpentan-2-yl)amino)benzamido)propanoic Acid]	254	92

Source: patent US11384060B2, “Amide compounds and use thereof” (ALPHALA CO., LTD., priority 2017, dated 2022)
